“Also recorded” adds a separate entry of the source. Positions of bridges follow the written chain, without caps; N, C: chain ends. Residues, ends and D or L forms follow the SMILES beside them.
Tests used:
naïve mice (C57Bl/6j) [1] = details: mouse, in vivo, sc, 2 mg/kg
Cav2.2 channel = details: cited from earlier work
[2] = system: CFA-injected mice (C57 Bl6); details: mouse, in vivo
mice (C57 Bl6) = details: mouse, in vivo, sc
naïve mice (C57Bl/6j) [3] = details: mouse, in vivo, sc, 2 mg/kg; remark: listed apart in the source
[4] = target: T1, N-type calcium currents (Cav2.2), mouse DRG neurons (Mus musculus, UniProt O55017); assay type: cell-based
[5] = target: T1, N-type calcium currents (Cav2.2), mouse DRG neurons; assay type: cell-based; remark: listed apart in the source
[6] = system: N-type VGCCs over the P/Q-type (Cav2.1); details: cited from earlier work
[7] = system: CFA-injected mice (C57 Bl6); details: mouse, in vivo; remark: listed apart in the source
rat = details: in vivo, iv; cited from earlier work
[8] = system: excitatory monosynaptic transmission in the dorsal horn of the spinal cord; details: cited from earlier work
[9] = system: N-type calcium channels with auxiliary subunits; details: cited from earlier work

T1 sequence (O55017 whole entry): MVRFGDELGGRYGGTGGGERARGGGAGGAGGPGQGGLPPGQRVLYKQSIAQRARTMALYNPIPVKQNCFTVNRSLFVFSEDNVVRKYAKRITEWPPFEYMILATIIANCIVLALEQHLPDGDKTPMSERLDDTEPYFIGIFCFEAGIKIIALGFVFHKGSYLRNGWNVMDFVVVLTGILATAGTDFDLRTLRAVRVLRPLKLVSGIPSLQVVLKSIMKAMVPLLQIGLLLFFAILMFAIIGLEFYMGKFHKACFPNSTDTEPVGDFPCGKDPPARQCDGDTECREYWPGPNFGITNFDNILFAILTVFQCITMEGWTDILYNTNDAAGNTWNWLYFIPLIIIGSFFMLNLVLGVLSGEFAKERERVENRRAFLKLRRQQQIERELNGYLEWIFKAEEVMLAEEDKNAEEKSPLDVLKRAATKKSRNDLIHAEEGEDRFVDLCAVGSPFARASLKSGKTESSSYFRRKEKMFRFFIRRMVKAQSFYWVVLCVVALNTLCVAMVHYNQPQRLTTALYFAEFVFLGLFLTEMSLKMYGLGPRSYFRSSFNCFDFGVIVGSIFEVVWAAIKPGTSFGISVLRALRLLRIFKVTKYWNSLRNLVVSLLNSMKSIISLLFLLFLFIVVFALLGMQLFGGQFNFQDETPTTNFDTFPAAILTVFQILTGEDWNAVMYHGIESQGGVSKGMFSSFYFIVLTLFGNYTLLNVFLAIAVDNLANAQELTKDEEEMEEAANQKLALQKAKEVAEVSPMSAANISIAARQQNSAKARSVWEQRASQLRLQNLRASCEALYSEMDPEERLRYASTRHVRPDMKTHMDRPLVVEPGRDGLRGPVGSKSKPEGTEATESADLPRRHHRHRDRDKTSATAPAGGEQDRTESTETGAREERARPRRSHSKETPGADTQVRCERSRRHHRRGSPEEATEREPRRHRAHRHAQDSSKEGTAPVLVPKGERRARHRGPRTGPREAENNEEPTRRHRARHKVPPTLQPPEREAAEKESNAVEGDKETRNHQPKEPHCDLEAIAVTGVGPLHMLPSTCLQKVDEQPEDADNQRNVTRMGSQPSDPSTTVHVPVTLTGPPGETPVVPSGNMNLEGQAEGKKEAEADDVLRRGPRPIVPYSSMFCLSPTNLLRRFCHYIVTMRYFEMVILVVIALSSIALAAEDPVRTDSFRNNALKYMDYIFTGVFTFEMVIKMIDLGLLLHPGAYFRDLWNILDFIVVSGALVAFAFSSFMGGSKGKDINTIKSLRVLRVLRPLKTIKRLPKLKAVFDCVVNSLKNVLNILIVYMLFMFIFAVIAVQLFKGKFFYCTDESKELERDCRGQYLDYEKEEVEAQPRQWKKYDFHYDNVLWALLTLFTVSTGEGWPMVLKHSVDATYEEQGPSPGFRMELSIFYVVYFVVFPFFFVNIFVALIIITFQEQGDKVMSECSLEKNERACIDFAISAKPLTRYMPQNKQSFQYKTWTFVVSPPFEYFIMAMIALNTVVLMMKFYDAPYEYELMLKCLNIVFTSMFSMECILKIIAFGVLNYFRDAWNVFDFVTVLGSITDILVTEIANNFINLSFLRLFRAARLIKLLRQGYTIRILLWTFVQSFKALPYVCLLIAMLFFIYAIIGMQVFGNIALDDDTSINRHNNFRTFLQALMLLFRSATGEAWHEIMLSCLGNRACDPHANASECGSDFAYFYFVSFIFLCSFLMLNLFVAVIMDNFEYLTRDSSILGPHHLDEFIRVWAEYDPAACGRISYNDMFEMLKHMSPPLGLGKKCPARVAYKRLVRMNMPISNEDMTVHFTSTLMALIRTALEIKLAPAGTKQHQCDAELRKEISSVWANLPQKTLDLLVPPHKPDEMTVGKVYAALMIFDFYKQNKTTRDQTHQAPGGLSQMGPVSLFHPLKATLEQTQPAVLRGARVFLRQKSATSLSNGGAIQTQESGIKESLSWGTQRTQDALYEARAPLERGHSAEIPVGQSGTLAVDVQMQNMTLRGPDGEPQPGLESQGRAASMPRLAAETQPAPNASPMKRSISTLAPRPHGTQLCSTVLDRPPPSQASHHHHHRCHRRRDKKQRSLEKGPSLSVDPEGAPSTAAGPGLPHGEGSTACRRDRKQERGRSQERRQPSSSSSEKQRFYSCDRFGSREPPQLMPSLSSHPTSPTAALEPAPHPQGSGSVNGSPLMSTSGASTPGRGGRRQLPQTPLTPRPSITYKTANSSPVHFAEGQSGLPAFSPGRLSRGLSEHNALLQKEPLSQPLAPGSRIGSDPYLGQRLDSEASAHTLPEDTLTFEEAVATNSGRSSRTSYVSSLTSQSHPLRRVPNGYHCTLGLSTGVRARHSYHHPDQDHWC

| Compound | Rotarod performance, End rate (naïve mice (C57Bl/6j) [1]) [rpm] | Rotarod performance, Time to fall (naïve mice (C57Bl/6j) [1]) [s] | ceiling effect [2] | side-effects after systemic administration (mice (C57 Bl6)) | Grip strength, Peak tension (naïve mice (C57Bl/6j) [3]) [g] | Grip strength, Tension/weight (naïve mice (C57Bl/6j) [3]) | rank order of potency to inhibit N-type calcium currents [4] | recovery from block, 30 min [5] | reversibility of ICa block [5] | inhibition of Cav2.2 channel currents (Cav2.2 channel) | inhibition of excitatory monosynaptic transmission [8] | maximal inhibition relative to CVID [4] | recovery from block in presence of β2a compared to β3 subunits [9] | also measured |
| --- | --- | --- | --- | --- | --- | --- | --- | --- | --- | --- | --- | --- | --- | --- |
| CSCC[C@@H]1NC(=O)[C@H](CC(C)C)NC(=O)[C@H](CCCCN)NC(=O)[C@H](CO)NC(=O)[C@@H]2CSSC[C@@H]3NC(=O)[C@H](CO)NC(=O)CNC(=O)[C@H](CO)NC(=O)[C@H](CSSC[C@H](N)C(=O)N[C@@H](CCCCN)C(=O)N[C@@H](CO)C(=O)N[C@@H](CCCCN)C(=O)NCC(=O)N[C@@H](C)C(=O)N[C@@H](CCCCN)C(=O)N2)NC(=O)[C@H](CSSC[C@@H](C(N)=O)NC(=O)[C@H](CCCNC(=N)N)NC(=O)CNC(=O)[C@H](C(C)C)NC(=O)[C@H]([C@@H](C)O)NC(=O)CNC(=O)[C@H](CO)NC3=O)NC(=O)[C@H](CC(=O)O)NC(=O)[C@H](Cc2ccc(O)cc2)NC1=O [CVID] (H-CKSKGAKCSKLMYDCCSGSCSGTVGRC-NH2; disulfide 1-16, 8-20, 15-27) | 18 ± 1.4 | 40 ± 4.1 | reaching a ceiling effect | not accompanied by side-effects such as motor deficits or sedation | 121 ± 5.7 | 5.7 ± 0.3 | least potent | no recovery was observed | completely irreversible; also recorded: no recovery was observed | – | – | – | – | reversibility of inhibition (Cav2.2 channel): irreversible inhibition; effect on automated von Frey and incapacitance measures: incapacitance [2]: both measures appeared to be sensitive to subcutaneous injection of CVID; also recorded: partially reversed; reversal of incapacitance at peak time of action (2 h) [2]: significant reversal; dose at which response reaches a ceiling ([2]; sc): 0.2 mg/kg; peak time of action ([2]; sc): 2 h; Log [IC50] [4]: -7.12 ± 0.04; Maximal Inhibition of ICa [4]: 52 ± 2 % of total; block of high-voltage activated ICa [4]: block of high-voltage activated ICa; inhibition of total ICa (Figure 1B) [4]: about 40%; Recovery from block [5]: -1 ± 5 % of inhibition; selectivity for N-type VGCCs over P/Q-type [6]: higher selectivity for N-type VGCCs over the P/Q-type (Cav2.1); selectivity for N-type calcium channels [6]: high selectivity for N-type calcium channels; effect on automated von Frey measure [7]: both measures appeared to be sensitive to subcutaneous injection of CVID; also recorded: partially reversed; antihyperalgesic effects (rat): dose-dependent antihyperalgesic effects; cardiovascular side effects (rat): without serious cardiovascular side effects |
| C[C@@H]1NC(=O)CNC(=O)[C@H](CCCCN)NC(=O)CNC(=O)[C@H](CCCCN)NC(=O)[C@@H](N)CSSC[C@@H]2NC(=O)[C@@H]3CSSC[C@@H](C(N)=O)NC(=O)[C@H](CCCNC(=N)N)NC(=O)CNC(=O)[C@H](CO)NC(=O)[C@H](CCCNC(=N)N)NC(=O)[C@H](CSSC[C@H](NC(=O)[C@H](CO)NC1=O)C(=O)N[C@@H](CCCNC(=N)N)C(=O)N[C@@H](CCCNC(=N)N)C(=O)N[C@@H]([C@@H](C)O)C(=O)N[C@@H](CO)C(=O)N[C@@H](Cc1ccc(O)cc1)C(=O)N[C@@H](CC(=O)O)C(=O)N3)NC(=O)[C@H](CO)NC(=O)CNC(=O)[C@H]([C@@H](C)O)NC2=O [CVIE] | 17 ± 1.4 | 36 ± 4.1 | not seen with CVIE; also recorded: did not appear to reach a ceiling at the highest dose tested | not accompanied by side-effects such as motor deficits or sedation | 121 ± 6.9 | 5.5 ± 0.3 | most potent | no recovery was observed | completely irreversible; also recorded: no recovery was observed | potently and reversibly inhibited | reversibly inhibited | very similar to that of CVID | much greater | overall significance of AUC data, doses ([2]; sc): 2.0 mg/kg; potency versus CVID (AUC) ([2]; sc): not CVID at any dose; reversal of incapacitance relative to another peptide (CVIE vs CVID) ([2]; sc): did not reveal any significant differences; also recorded: not significantly greater than CVID; potency at ICa inhibition compared to CVID [4]: more than ten-fold compared to CVID |
| CC(C)C[C@@H]1NC(=O)[C@H](CCCNC(=N)N)NC(=O)[C@@H]2CSSC[C@@H]3NC(=O)[C@H](CO)NC(=O)[C@H](C)NC(=O)CNC(=O)[C@H](CCCCN)NC(=O)CNC(=O)[C@H](CCCCN)NC(=O)[C@@H](N)CSSC[C@H](NC(=O)[C@H](CSSC[C@@H](C(N)=O)NC(=O)[C@H](CCCNC(=N)N)NC(=O)CNC1=O)NC(=O)[C@H](CC(=O)O)NC(=O)[C@H](Cc1ccc(O)cc1)NC(=O)[C@H](CO)NC(=O)[C@H]([C@@H](C)O)NC(=O)[C@H](CCCNC(=N)N)NC(=O)[C@H](CCCNC(=N)N)NC3=O)C(=O)N[C@@H]([C@@H](C)O)C(=O)NCC(=O)N[C@@H](CO)C(=O)N2 [CVIF] (H-CKGKGASCRRTSYDCCTGSCRLGRC-NH2; disulfide 1-16, 8-20, 15-25) | 17 ± 1.0 | 36 ± 3.0 | – | – | 121 ± 7.7 | 5.4 ± 0.4 | – | – | partially reversible; also recorded: Partial recovery | potently and reversibly inhibited | reversibly inhibited | very similar to that of CVID | much greater | – |
